Reference: ChEMBL document CHEMBL2074536, “Characterization of stably transfected kidney epithelial cell line expressing rat H+/peptide cotransporter PEPT1: localization of PEPT1 and transport of beta-lactam antibiotics” (J Pharmacol Exp Ther, 1997)
Where a SMILES comes first, the peptide text is derived from it.

Legend:
Format in all cases: functional, cell-based
[1] = target: T1, Solute carrier family 15 member 1 (Rattus norvegicus) (UniProt P51574); assay: TP_TRANSPORTER: inhibition of Cephradine uptake (Cephradine: 1000 uM, Gly-Gly-Phe: 10000 uM) in PEPT1-expressing LLC-PK1 cells
T1 sequence (whole entry): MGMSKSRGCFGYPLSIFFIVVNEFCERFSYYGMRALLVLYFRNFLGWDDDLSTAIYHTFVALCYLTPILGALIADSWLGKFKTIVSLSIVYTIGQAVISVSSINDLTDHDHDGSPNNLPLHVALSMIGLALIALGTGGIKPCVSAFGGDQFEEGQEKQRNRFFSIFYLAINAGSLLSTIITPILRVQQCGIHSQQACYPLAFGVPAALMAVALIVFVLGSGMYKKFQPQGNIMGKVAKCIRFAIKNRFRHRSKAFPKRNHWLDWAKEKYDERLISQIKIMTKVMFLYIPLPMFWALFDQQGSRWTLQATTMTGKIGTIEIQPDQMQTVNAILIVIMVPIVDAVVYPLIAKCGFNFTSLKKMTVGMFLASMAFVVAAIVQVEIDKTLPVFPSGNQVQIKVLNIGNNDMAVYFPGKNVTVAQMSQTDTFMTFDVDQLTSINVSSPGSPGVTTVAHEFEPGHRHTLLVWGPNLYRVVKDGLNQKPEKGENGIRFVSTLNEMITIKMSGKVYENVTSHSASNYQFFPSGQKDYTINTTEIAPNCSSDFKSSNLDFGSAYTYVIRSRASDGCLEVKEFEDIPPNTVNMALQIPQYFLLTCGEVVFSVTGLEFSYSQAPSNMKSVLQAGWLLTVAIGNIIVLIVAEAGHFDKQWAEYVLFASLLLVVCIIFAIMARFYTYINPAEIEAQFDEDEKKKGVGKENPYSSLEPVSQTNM

[2] = target: T1, Solute carrier family 15 member 1 (Rattus norvegicus); assay: TP_TRANSPORTER: inhibition of Ceftibuten uptake (Ceftibuten: 1000 uM, Gly-Gly-Phe: 10000 uM) in PEPT1-expressing LLC-PK1 cells
[3] = target: T1, Solute carrier family 15 member 1 (Rattus norvegicus); assay: TP_TRANSPORTER: inhibition of Ceftibuten uptake (Ceftibuten: 1000 uM, Bestatin: 10000 uM) in PEPT1-expressing LLC-PK1 cells
[4] = target: T1, Solute carrier family 15 member 1 (Rattus norvegicus); assay: TP_TRANSPORTER: inhibition of Cephradine uptake (Cephradine: 1000 uM, Bestatin: 10000 uM) in PEPT1-expressing LLC-PK1 cells
[5] = target: T1, Solute carrier family 15 member 1 (Rattus norvegicus); assay: (§1) TP_TRANSPORTER: uptake in PEPT1-expressing LLC-PK1 cells
[6] = target: T1, Solute carrier family 15 member 1 (Rattus norvegicus); assay: TP_TRANSPORTER: inhibition of Ceftibuten uptake (Ceftibuten: 1000 uM, Gly-Sar: 10000 uM) in PEPT1-expressing LLC-PK1 cells
[7] = target: T1, Solute carrier family 15 member 1 (Rattus norvegicus); assay: TP_TRANSPORTER: inhibition of Cephradine uptake (Cephradine: 1000 uM, Gly-Sar: 10000 uM) in PEPT1-expressing LLC-PK1 cells
[8] = target: T1, Solute carrier family 15 member 1 (Rattus norvegicus); assay: TP_TRANSPORTER: inhibition of Ceftibuten uptake (Ceftibuten: 1000 uM, Cefixime: 10000 uM) in PEPT1-expressing LLC-PK1 cells
[9] = target: T1, Solute carrier family 15 member 1 (Rattus norvegicus); assay: TP_TRANSPORTER: inhibition of Cephradine uptake (Cephradine: 1000 uM, Ceftibuten: 5000 uM) in PEPT1-expressing LLC-PK1 cells
[10] = target: T1, Solute carrier family 15 member 1 (Rattus norvegicus); assay: TP_TRANSPORTER: inhibition of Cephradine uptake (Cephradine: 1000 uM, Gly-Leu: 10000 uM) in PEPT1-expressing LLC-PK1 cells
[11] = target: T1, Solute carrier family 15 member 1 (Rattus norvegicus); assay: TP_TRANSPORTER: inhibition of Ceftibuten uptake (Ceftibuten: 1000 uM, Gly-Leu: 10000 uM) in PEPT1-expressing LLC-PK1 cells
[12] = substrate: Nc1nc(/C(=C/CC(=O)O)C(=O)N[C@@H]2C(=O)N3C(C(=O)O)=CCS[C@H]23)cs1; assay: as §1
[13] = substrate: CC1=C(C(=O)O)N2C(=O)[C@@H](NC(=O)[C@H](N)C3=CCC=CC3)[C@H]2SC1; assay: as §1

How did the Activity [1] turn out when NCC(=O)NCC(=O)N[C@@H](Cc1ccccc1)C(=O)O (H-Gly-Gly-Phe-OH) was run?
The Activity was “inhibitor [+]”.

What about the Activity [2] of the same molecule?
The Activity was “inhibitor [+]”.

Which Activity [3] does the source give for CC(C)C[C@H](NC(=O)[C@@H](O)[C@H](N)Cc1ccccc1)C(=O)O here?
Its Activity is “inhibitor [+]”.

What about the Activity [4] of the same molecule?
Its Activity is “inhibitor [+]”.

What about the Activity [5] of the same molecule?
Its Activity is “substrate [+]”.

For CN(CC(=O)O)C(=O)CN (HELM PEPTIDE1{G.[Sar]}$$$$V2.0), which Activity [6] is on record?
The Activity was “inhibitor [+]”.

What about the Activity [7] of the same molecule?
Its Activity is “inhibitor [+]”.

Which Activity [8] does the source give for C=CC1=C(C(=O)O)N2C(=O)[C@@H](NC(=O)/C(=N\OCC(=O)O)c3csc(N)n3)[C@H]2SC1 here?
The Activity was “inhibitor [+]”.

Which Activity [9] does the source give for Nc1nc(/C(=C/CC(=O)O)C(=O)N[C@@H]2C(=O)N3C(C(=O)O)=CCS[C@H]23)cs1 here?
The Activity was “inhibitor [+]”.

What does the source list for CC(C)C[C@H](NC(=O)CN)C(=O)O?
Activity [10]: inhibitor [+]; Activity [11]: inhibitor [+]

B1: Solute carrier family 15 member 1 (Rattus norvegicus), P51574 (protein)
chain: T1 sequence (whole entry)
B1 was tested. Which Km [12] did it give?
Its Km is 1.5 mM.

And the Km [13]?
The Km was 8.2 mM.
